The term IC50 denotes the concentration that gives 50% inhibition. A word on the inhibition: it is the change of the read-out against control, counted positive when it falls.

The nature of test [1]: AlphaScreen biotin-His6 counterscreen. The conditions noted are these: AlphaScreen interference counterscreen with biotin-His6; unit inferred; DNC = data did not converge to binding model; NM = not measurable within the solubility range. For orientation: Bead proximity is the source of the signal in Alpha formats.
The target of another test is T1, KDM7A(PHD) (Homo sapiens, UniProt Q6ZMT4).
T1 construct: made in house
T1 sequence (Q6ZMT4 37-88 limits assumed): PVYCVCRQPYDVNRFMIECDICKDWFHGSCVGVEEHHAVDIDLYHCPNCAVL
The experiment in a line: AlphaScreen displacement of H3K4me3-Bn from His-KDM7A(PHD). Format: binding. The conditions noted are these: AlphaScreen; 6.25 nM KDM7A(PHD) and 25 nM peptide; n ≥ 3; read-out: IC50 for displacement of H3K4me3-Bn from His-KDM7A(PHD). Here is the method: (§1) For peptide displacement assays, 5 µL of the inhibitor dilution series (at a concentration of 4% DMSO in AlphaScreen assay buffer) was pre-incubated with 5 µL of the protein at RT for 15 minutes. Peptide solution (5 µL) was added and incubated for 30 minutes at RT, followed by the addition of 5 µL of a mixture of AlphaScreen Streptavidin donor beads and Nickel Chelate acceptor beads in AlphaScreen assay buffer (20 µg/mL final). The contents were incubated for 60-120 minutes at RT in the dark, followed by measurement of luminescence on a BMG Labtech Pherastar plate reader (Software Ver. 5.30 R3, Firmware Ver. 1.21). The data was plotted in Prism Ver 7.01 (GraphPad Software, Inc.) and fitted to a Log(inhibitor) v/s response – variable slope model in order to obtain IC50 values.

Test [2] concerns the target T2, KDM7B (PHD-JmjC) (Homo sapiens, UniProt Q9UPP1).
T2 construct: A dual-domain construct of KDM7A/B(PHD-JmjC), consisting of a JmjC domain in addition to the PHD-finger; His; made in house
The experiment in a line: AlphaScreen displacement of H3K4me3-Bn from His-KDM7B(PHD-JmjC). Format: binding. The conditions noted are these: AlphaScreen displacement of H3K4me3-Bn; n = 3; NI = No inhibition seen at 100 μM; read-out: IC50 KDM7B (PHD-JmjC) (Displacement). Here is the method: A dual-domain construct of KDM7A/B(PHD-JmjC), consisting of a JmjC domain in addition to the PHD-finger (Fig. 1B), was used to test for allosteric inhibition through binding at the PHD-finger.
as §1

Test [3] deals with T2, KDM7B (PHD-JmjC). The experiment in a line: MALDI-TOF MS H3K9me2 demethylation assay, KDM7B(PHD-JmjC). The format is biochemical. The conditions noted are these: at 100 µM; MALDI-TOF MS; substrate H3(1–5)K4me3K9me2; read-out: KDM7B (PHD-JmjC) (Catalytic), inhibition of H3K9me2 demethylation. How it is done:
H3(1–15)K9me2 and H3(1–5)K4me3K9me2 were used as substrates for KDM7A(PHD-JmjC) and KDM7B(PHD-JmjC), respectively. […] For KDM7B(PHD-JmjC), inhibition was most pronounced for 1a (95%) and 2a (89%) whilst others inhibited more weakly (Table 4).
For KDM7(PHD-JmjC) assays, 2.5 µM enzyme was used, with 5 µM H3(1-15)K9me2 peptide substrate for KDM7A or H3(1-15)K4me3K9me2 for KDM7B. Final concentrations were: 1mM ascorbate, 50 µM (NH4)2Fe(II)(SO4)2 and 200 µM 2OG. The mixture was quenched using formic acid after 10 minutes (KDM7A) or 5 minutes (KDM7B).

The target of a further test is T3, KDM7B(PHD) (Homo sapiens, UniProt Q9UPP1).
T3 construct: made in house
T3 sequence (Q9UPP1 41-92 limits assumed): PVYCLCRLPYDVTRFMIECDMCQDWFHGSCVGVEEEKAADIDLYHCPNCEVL
The experiment in a line: AlphaScreen displacement of H3K4me3-Bn from His-KDM7B(PHD). The format is binding. The conditions noted are these: AlphaScreen; 12.5 nM protein and 12.5 nM peptide; n ≥ 3; read-out: IC50 for displacement of H3K4me3-Bn from His-KDM7B(PHD). How it is done: as §1

Another test deals with T4, KDM7C(PHD) (Homo sapiens, UniProt O75151).
T4 construct: made in house
T4 sequence (O75151 5-56 limits assumed): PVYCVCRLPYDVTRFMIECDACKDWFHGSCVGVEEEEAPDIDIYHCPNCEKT
The experiment in a line: AlphaScreen displacement of H3K4me3-Bn from His-KDM7C(PHD). The conditions noted are these: AlphaScreen; 25 nM KDM7C(PHD) and 6.25 nM peptide; n ≥ 3; read-out: IC50 for displacement of H3K4me3-Bn from His-KDM7C(PHD). Format: binding. How it is done:
as §1

The target of another test is T5, His-KDM5A(PHD3) (Homo sapiens, UniProt P29375).
T5 construct: KDM5A(PHD3) (1542 – 1660), encoded by a pGTLV2 vector; made in house; host or cells: E. coli Rosetta 2(DE3)pLysS
T5 sequence (P29375 1542-1660): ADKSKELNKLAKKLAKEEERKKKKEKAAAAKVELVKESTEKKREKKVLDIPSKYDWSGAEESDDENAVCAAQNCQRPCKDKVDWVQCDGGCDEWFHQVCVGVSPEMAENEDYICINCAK
The experiment in a line: AlphaScreen displacement assay, H3K4me3-Bn from His-KDM5A(PHD3). The format is binding. The note with it: AlphaScreen; 25 nM protein and 25 nM peptide; average ± StdDev, n ≥ 3; NM = not measurable within the solubility range; read-out: IC50 for displacement of H3K4me3-Bn from His-KDM5A(PHD3). Here is the method:
AlphaScreen is a homogenous bead-based assay used to study protein-protein interactions.[28] […] AlphaScreen beads were then added and incubated for 1 h. Changes in the AlphaScreen signals with increasing inhibitor concentrations were then measured to quantify the level of KDM5A(PHD3) and H3K4me3 binding, and IC50 values were determined.
His-tagged PHD finger constructs and H3K4me3-Bn peptides were diluted into AlphaScreen assay buffer (50mM HEPES, 150mM NaCl, 0.1% BSA, 0.01% Tween20, pH 7.5). An 8-point 1:2 dilution series was made for both protein and peptide. With a multichannel pipette (LTS P10), 5 µL protein was dispensed into 8 columns of a 384-well plate, followed by 5 µL of 4% DMSO in AlphaScreen assay buffer. The mixture was incubated at room temperature for 15 minutes, followed by dispensing 5 µL peptide across 8 rows of the 384-well plate, forming a cross-gradient of protein and peptide. The contents were incubated for 30 minutes at room temperature, followed by the addition of 5 µL of a mixture of AlphaScreen Streptavidin donor beads and Nickel Chelate acceptor beads in AlphaScreen assay buffer (20 µg/mL final). The samples were incubated for 60-120 minutes at room temperature in the dark, followed by measurement of luminescence on a BMG Labtech Pherastar plate reader (Software Ver. 5.30 R3, Firmware Ver. 1.21). The data was plotted in Prism Ver 7.01 (GraphPad Software, Inc.) and fitted to a linear model in order to determine the optimal concentration of protein and peptide within the linear signal range for each reader domain.
as §1

T2 sequence (Q9UPP1 37-483 limits assumed): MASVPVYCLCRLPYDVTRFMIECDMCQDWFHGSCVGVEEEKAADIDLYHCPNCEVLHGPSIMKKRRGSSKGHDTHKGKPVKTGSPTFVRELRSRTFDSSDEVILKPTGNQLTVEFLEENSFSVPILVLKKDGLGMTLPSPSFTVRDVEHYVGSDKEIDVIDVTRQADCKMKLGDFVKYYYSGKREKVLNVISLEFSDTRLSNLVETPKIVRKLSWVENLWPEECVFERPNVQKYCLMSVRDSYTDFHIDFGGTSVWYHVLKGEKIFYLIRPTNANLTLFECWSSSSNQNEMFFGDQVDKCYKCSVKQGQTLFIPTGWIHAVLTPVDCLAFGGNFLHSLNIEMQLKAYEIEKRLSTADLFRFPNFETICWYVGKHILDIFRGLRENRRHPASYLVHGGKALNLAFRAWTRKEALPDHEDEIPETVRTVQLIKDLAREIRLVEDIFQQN

Turning to `CCCCc1oc2ccccc2c1C(=O)c1ccc(OCCCN(C)C)cc1` [Compound 1a, (2-Butylbenzofuran-3-yl)(4-(3-(dimethylamino)propoxy)phenyl)methanone], the IC50 is 484 ± 82 µM in test [1]; 333 ± 39 µM on KDM7A(PHD); above 100 µM on KDM7B (PHD-JmjC) [2]; 397 ± 77 µM on KDM7B(PHD); 158 ± 30 µM on KDM7C(PHD); 166 ± 20 µM on His-KDM5A(PHD3). Besides, the inhibition at 100 µM at KDM7B (PHD-JmjC) [3] worked out at 95%.

With `CCCCc1oc2ccccc2c1C(=O)c1ccc(OCCC[N+](C)(C)C)cc1.[I-]` [Compound 2a, 3-(4-(2-Butylbenzofuran-3-carbonyl)phenoxy)-N,N,N-trimethylpropan-1-aminium iodide], the IC50 was 4300 ± 163 µM in test [1]; 86 ± 9 µM on KDM7A(PHD); 120 ± 32 µM at KDM7B (PHD-JmjC) [2]; 355 ± 39 µM on KDM7B(PHD); 579 ± 87 µM at KDM7C(PHD); 340 ± 44 µM on His-KDM5A(PHD3). The inhibition at 100 µM on KDM7B (PHD-JmjC) [3] worked out at 89%.

The values are drawn from PMC6380468, “Investigations on small molecule inhibitors targeting the histone H3K4 tri-methyllysine binding PHD-finger of JmjC histone demethylases” (Bioorganic & Medicinal Chemistry, 2018).
